# From ChEMBL document CHEMBL5230129, “Antibacterial activities with the structure-activity relationship of coumarin derivatives” (2020)
# How the values were obtained:
# Type in all cases: functional
# Pseudomonas = test: Antibacterial activity against Pseudomonas assessed as zone of inhibition; further: test concentration or dose not given here
# Escherichia coli [1] = test: Antibacterial activity against Escherichia coli ATCC 8739 assessed as inhibition of bacterial growth incubated for 24 hrs by microbroth dilution assay
# Enterococcus faecalis = test: Antibacterial activity against Enterococcus faecalis PCM 2673 assessed as inhibition of bacterial growth incubated for 24 hrs by microbroth dilution assay
# Escherichia coli [2] = test: Antibacterial activity against Escherichia coli assessed as zone of inhibition incubated for 3 days by cup plate agar diffusion assay; conditions: time 3 day; further: test concentration or dose not given here
# Pseudomonas aeruginosa [3] = test: Antibacterial activity against Pseudomonas aeruginosa assessed as zone of inhibition incubated for 3 days by cup plate agar diffusion assay; conditions: time 3 day; further: test concentration or dose not given here
# Staphylococcus aureus [4] = test: Antibacterial activity against Staphylococcus aureus assessed as zone of inhibition incubated for 3 days by cup plate agar diffusion assay; conditions: time 3 day; further: test concentration or dose not given here
# Bacillus subtilis [5] = test: Antibacterial activity against Bacillus subtilis assessed as zone of inhibition incubated for 3 days by cup plate agar diffusion assay; conditions: time 3 day; further: test concentration or dose not given here
# Staphylococcus aureus [6] = test: Antibacterial activity against Staphylococcus aureus assessed as inhibition of bacterial growth by broth micro dilution assay
# Bacillus = test: Antibacterial activity against Bacillus assessed as inhibition of bacterial growth by broth micro dilution assay
# Escherichia coli [7] = test: Antibacterial activity against Escherichia coli assessed as inhibition of bacterial growth by broth micro dilution assay
# Escherichia coli [8] = test: Antibacterial activity against Escherichia coli 1411 assessed as inhibition of bacterial growth incubated for 24 hrs by two-fold serial dilution method
# Escherichia coli [9] = test: Antibacterial activity against Escherichia coli SM1411 assessed as inhibition of bacterial growth incubated for 24 hrs by two-fold serial dilution method
# Staphylococcus aureus [10] = test: Antibacterial activity against Staphylococcus aureus MTCC 96 assessed as inhibition of bacterial growth incubated for 18 to 20 hrs by broth microdilution assay; conditions: time 18-20 hrs
# Escherichia coli [11] = test: Antibacterial activity against Escherichia coli MTCC 443 assessed as inhibition of bacterial growth incubated for 18 to 20 hrs by broth microdilution assay; conditions: time 18-20 hrs
# Staphylococcus aureus [12] = test: Antibacterial activity against Staphylococcus aureus assessed as inhibition of bacterial growth by broth dilution assay
# Bacillus subtilis [13] = test: Antibacterial activity against Bacillus subtilis assessed as inhibition of bacterial growth by broth dilution assay
# Pseudomonas aeruginosa [14] = test: Antibacterial activity against Pseudomonas aeruginosa ATCC 27853 assessed as zone of inhibition incubated for 24 hrs by paper disk method; further: test concentration or dose not given here
# Escherichia coli [15] = test: Antibacterial activity against Escherichia coli ATCC 25922 assessed as zone of inhibition incubated for 24 hrs by paper disk method; further: test concentration or dose not given here
# Pseudomonas fluorescens = test: Antibacterial activity against Pseudomonas fluorescens NCIM 2173 assessed as inhibition of bacterial growth incubated for 24 hrs by serial twofold dilution assay
# Escherichia coli [16] = test: Antibacterial activity against Escherichia coli NCIM 2256 assessed as inhibition of bacterial growth incubated for 24 hrs by serial twofold dilution assay
# [17] = test system: Sphingomonas paucimobilis; test: Antibacterial activity against Flavobacterium devorans ATCC 10829 assessed as inhibition of bacterial growth incubated for 24 hrs by serial twofold dilution assay
compound,measurement,setting,value
O=c1cc(-c2nc3ccccc3[nH]2)c2cc(Br)ccc2o1,inhibition zone (IZ),Pseudomonas,4.8 mm
O=c1cc(OCc2cn(-c3ccc(F)cc3)nn2)c2ccccc2o1,MIC,Escherichia coli [1],1600 µg/mL
same,MIC,Enterococcus faecalis,400 µg/mL
CC1(C)S[C@@H]2[C@H](NC(=O)[C@H](N)c3ccc(O)cc3)C(=O)N2[C@H]1C(=O)O [AMOXICILLIN],inhibition zone (IZ),Escherichia coli [2],30 mm
same,inhibition zone (IZ),Pseudomonas aeruginosa [3],10 mm
same,inhibition zone (IZ),Staphylococcus aureus [4],30 mm
same,inhibition zone (IZ),Bacillus subtilis [5],12 mm
Cc1ccc2c(C3NNC(=O)N3)cc(=O)oc2c1 (stereo not given),MIC,Staphylococcus aureus [6],1.6 µg/mL
same,MIC,Bacillus,1.6 µg/mL
same,MIC,Escherichia coli [7],1.6 µg/mL
O=c1oc2ccccc2cc1C1=NNC(c2ccc(F)cc2)C1 (stereo not given),MIC,Escherichia coli [8],> 70 µg/mL
same,MIC,Escherichia coli [9],> 70 µg/mL
COc1ccc(-n2cc(COc3cc(=O)oc4ccccc34)nn2)cc1F,MIC,Escherichia coli [1],200 µg/mL
same,MIC,Enterococcus faecalis,100 µg/mL
Cc1cc(=O)oc2cc(OC(=O)CNC3N=C(c4ccc(F)cc4)C=C(c4ccc(F)cc4)S3)c([N+](=O)[O-])cc12 (stereo not given),MIC,Staphylococcus aureus [10],125 µg/mL
same,MIC,Escherichia coli [11],200 µg/mL
Cc1ccc(/C=C/C(=O)c2c(OCc3cnnn3Cc3ccccc3)ccc3c(C)cc(=O)oc23)cc1,inhibition zone (IZ),Escherichia coli [2],14 mm
same,inhibition zone (IZ),Pseudomonas aeruginosa [3],7 mm
same,inhibition zone (IZ),Staphylococcus aureus [4],17 mm
same,inhibition zone (IZ),Bacillus subtilis [5],6 mm
Cc1cc(=O)oc2c(C(=O)/C=C/c3ccc(F)cc3)c(OCc3cnnn3Cc3ccccc3)ccc12,inhibition zone (IZ),Escherichia coli [2],27 mm
same,inhibition zone (IZ),Pseudomonas aeruginosa [3],10 mm
same,inhibition zone (IZ),Staphylococcus aureus [4],27 mm
same,inhibition zone (IZ),Bacillus subtilis [5],11 mm
O=c1oc2ccc(Br)cc2cc1-c1cc2c(ccc3ccccc32)o1,MIC,Staphylococcus aureus [12],0.2 µg/mL
same,MIC,Bacillus subtilis [13],6.25 µg/mL
O=C(COc1cc(=O)oc2ccccc12)NC1CCCCCC1,inhibition zone (IZ),Pseudomonas aeruginosa [14],10 mm
same,inhibition zone (IZ),Escherichia coli [15],11 mm
O=C(COc1cc(=O)oc2ccccc12)N(c1ccccc1)c1ccccc1,inhibition zone (IZ),Pseudomonas aeruginosa [14],12 mm
same,inhibition zone (IZ),Escherichia coli [15],10 mm
COc1ccc2c(C3NNC(=O)N3)cc(=O)oc2c1 (stereo not given),MIC,Staphylococcus aureus [6],0.8 µg/mL
same,MIC,Bacillus,3.12 µg/mL
same,MIC,Escherichia coli [7],1.6 µg/mL
Cc1ccc2c(-c3nc4ccccc4[nH]3)cc(=O)oc2c1,inhibition zone (IZ),Pseudomonas,4.1 mm
Cc1cc(=O)oc2cc(OC(=O)CNC3N=C(c4ccc(F)cc4)C=C(c4cccc(Oc5ccccc5)c4)S3)c([N+](=O)[O-])cc12 (stereo not given),MIC,Staphylococcus aureus [10],200 µg/mL
same,MIC,Escherichia coli [11],250 µg/mL
O=c1cc(OCc2cn(-c3ccccc3)nn2)c2ccccc2o1,MIC,Escherichia coli [1],1600 µg/mL
same,MIC,Enterococcus faecalis,50 µg/mL
Cc1cc(=O)oc2cc(OC(=O)CNC3N=C(c4ccc(F)cc4)C=C(c4ccc(Cl)cc4)S3)c([N+](=O)[O-])cc12 (stereo not given),MIC,Staphylococcus aureus [10],250 µg/mL
same,MIC,Escherichia coli [11],50 µg/mL
COc1cc(/C=C/C(=O)c2c(OCc3cnnn3Cc3ccccc3)ccc3c(C)cc(=O)oc23)cc(OC)c1OC,inhibition zone (IZ),Escherichia coli [2],33 mm
same,inhibition zone (IZ),Pseudomonas aeruginosa [3],14 mm
same,inhibition zone (IZ),Staphylococcus aureus [4],35 mm
same,inhibition zone (IZ),Bacillus subtilis [5],15 mm
O=c1cc(-c2nc3ccccc3[nH]2)c2ccc3ccccc3c2o1,inhibition zone (IZ),Pseudomonas,4.2 mm
Cc1cc(=O)oc2cc(OC(=O)CNC3N=C(c4ccc(F)cc4)C=C(c4ccc(O)cc4)S3)c([N+](=O)[O-])cc12 (stereo not given),MIC,Staphylococcus aureus [10],250 µg/mL
same,MIC,Escherichia coli [11],250 µg/mL
Cc1ccc2cc(-c3cc4ccccc4oc3=O)oc2c1,MIC,Staphylococcus aureus [12],0.2 µg/mL
same,MIC,Bacillus subtilis [13],0.2 µg/mL
COc1ccc(/C=C/C(=O)c2c(OCc3cnnn3Cc3ccccc3)ccc3c(C)cc(=O)oc23)cc1,inhibition zone (IZ),Escherichia coli [2],28 mm
same,inhibition zone (IZ),Pseudomonas aeruginosa [3],9 mm
same,inhibition zone (IZ),Staphylococcus aureus [4],28 mm
same,inhibition zone (IZ),Bacillus subtilis [5],11 mm
O=c1cc(-c2nc3ccccc3[nH]2)c2cc(Cl)ccc2o1,inhibition zone (IZ),Pseudomonas,8 mm
C[C@@H](NC(=O)COc1cc(=O)oc2ccccc12)c1cccc2ccccc12,inhibition zone (IZ),Pseudomonas aeruginosa [14],14 mm
same,inhibition zone (IZ),Escherichia coli [15],12 mm
Cc1ccc2oc(-c3cc4ccccc4oc3=O)cc2c1,MIC,Staphylococcus aureus [12],0.2 µg/mL
same,MIC,Bacillus subtilis [13],0.4 µg/mL
Cc1cc(=O)oc2c(C(=O)/C=C/c3ccccc3)c(OCc3cnnn3Cc3ccccc3)ccc12,inhibition zone (IZ),Escherichia coli [2],10 mm
same,inhibition zone (IZ),Pseudomonas aeruginosa [3],4 mm
same,inhibition zone (IZ),Staphylococcus aureus [4],11 mm
same,inhibition zone (IZ),Bacillus subtilis [5],8 mm
Cc1cc(C)c2c(C3NNC(=O)N3)cc(=O)oc2c1 (stereo not given),MIC,Staphylococcus aureus [6],6.25 µg/mL
same,MIC,Bacillus,6.25 µg/mL
same,MIC,Escherichia coli [7],50 µg/mL
COc1ccc(/C=C/C(=O)c2c(OCc3cnnn3Cc3ccccc3)ccc3c(C)cc(=O)oc23)cc1OC,inhibition zone (IZ),Escherichia coli [2],31 mm
same,inhibition zone (IZ),Pseudomonas aeruginosa [3],11 mm
same,inhibition zone (IZ),Staphylococcus aureus [4],32 mm
same,inhibition zone (IZ),Bacillus subtilis [5],13 mm
O=C1NNC(c2cc(=O)oc3ccc(Cl)cc23)N1 (stereo not given),MIC,Staphylococcus aureus [6],25 µg/mL
same,MIC,Bacillus,6.25 µg/mL
same,MIC,Escherichia coli [7],25 µg/mL
Cc1ccc(C2CC(c3cc4ccccc4oc3=O)=NN2)cc1 (stereo not given),MIC,Escherichia coli [8],16 µg/mL
same,MIC,Escherichia coli [9],18 µg/mL
O=c1oc2ccc(Br)cc2cc1-c1cc2ccc3ccccc3c2o1,MIC,Staphylococcus aureus [12],0.2 µg/mL
same,MIC,Bacillus subtilis [13],0.8 µg/mL
O=C(N[C@H](CO)[C@H](O)c1ccc([N+](=O)[O-])cc1)C(Cl)Cl [CHLORAMPHENICOL],MIC,Pseudomonas fluorescens,2 µg/mL
same,MIC,Escherichia coli [1],1.2 µg/mL
same,MIC,Escherichia coli [16],2 µg/mL
same,MIC,Staphylococcus aureus [10],50 µg/mL
same,MIC,Escherichia coli [11],50 µg/mL
same,MIC,[17],2 µg/mL
same,MIC,Enterococcus faecalis,5 µg/mL
Cc1cc(OCc2cn(Cc3ccc(Br)cc3)nn2)cc2oc(=O)ccc12,MIC,Pseudomonas fluorescens,4 µg/mL
same,MIC,Escherichia coli [16],4 µg/mL
same,MIC,[17],2 µg/mL
Cc1ccc2c(C3NNC(=O)N3)cc(=O)oc2c1C (stereo not given),MIC,Staphylococcus aureus [6],12.6 µg/mL
same,MIC,Bacillus,3.12 µg/mL
same,MIC,Escherichia coli [7],25 µg/mL
COc1cc(C2CC(c3cc4ccccc4oc3=O)=NN2)ccc1O (stereo not given),MIC,Escherichia coli [8],14 µg/mL
same,MIC,Escherichia coli [9],14 µg/mL
COc1ccc2oc(=O)cc(-c3nc4ccccc4[nH]3)c2c1,inhibition zone (IZ),Pseudomonas,4 mm
O=c1cc(OCc2cn(-c3cccc([N+](=O)[O-])c3)nn2)c2ccccc2o1,MIC,Escherichia coli [1],1600 µg/mL
same,MIC,Enterococcus faecalis,400 µg/mL
COc1ccc2oc(=O)cc(C3NNC(=O)N3)c2c1 (stereo not given),MIC,Staphylococcus aureus [6],0.8 µg/mL
same,MIC,Bacillus,0.8 µg/mL
same,MIC,Escherichia coli [7],0.8 µg/mL
C[C@@H](NC(=O)COc1cc(=O)oc2ccccc12)c1ccccc1,inhibition zone (IZ),Pseudomonas aeruginosa [14],10 mm
same,inhibition zone (IZ),Escherichia coli [15],12 mm
Cc1ccc2oc(=O)cc(-c3nc4ccccc4[nH]3)c2c1,inhibition zone (IZ),Pseudomonas,4.1 mm
Cc1cc(OCc2cn(Cc3ccc([N+](=O)[O-])cc3)nn2)cc2oc(=O)ccc12,MIC,Pseudomonas fluorescens,2 µg/mL
same,MIC,Escherichia coli [16],2 µg/mL
same,MIC,[17],16 µg/mL
O=c1oc2ccccc2cc1C1=NNC(c2ccc(-c3ccccc3)c(-c3ccccc3)c2)C1 (stereo not given),MIC,Escherichia coli [8],> 70 µg/mL
same,MIC,Escherichia coli [9],> 70 µg/mL
Cc1cc(=O)oc2cc(OC(=O)CNC3N=C(c4ccc(F)cc4)C=C(c4cccc(Br)c4)S3)c([N+](=O)[O-])cc12 (stereo not given),MIC,Staphylococcus aureus [10],100 µg/mL
same,MIC,Escherichia coli [11],500 µg/mL
Cc1cc(OCc2cn(Cc3ccc(Cl)cc3)nn2)cc2oc(=O)ccc12,MIC,Pseudomonas fluorescens,2 µg/mL
same,MIC,Escherichia coli [16],2 µg/mL
same,MIC,[17],2 µg/mL
O=c1oc2ccccc2cc1C1=NNC(c2ccc(Br)cc2)C1 (stereo not given),MIC,Escherichia coli [8],> 70 µg/mL
same,MIC,Escherichia coli [9],> 70 µg/mL
COc1ccccc1-n1cc(COc2cc(=O)oc3ccccc23)nn1,MIC,Escherichia coli [1],1600 µg/mL
same,MIC,Enterococcus faecalis,12.5 µg/mL
N[C@@H]1CONC1=O [CYCLOSERINE],MIC,Escherichia coli [8],16 µg/mL
same,MIC,Escherichia coli [9],16 µg/mL
Cc1ccc2oc(=O)cc(C3NNC(=O)N3)c2c1 (stereo not given),MIC,Staphylococcus aureus [6],1.6 µg/mL
same,MIC,Bacillus,0.8 µg/mL
same,MIC,Escherichia coli [7],0.8 µg/mL
Cc1ccc2cc(-c3cc4cc(Br)ccc4oc3=O)oc2c1,MIC,Staphylococcus aureus [12],3.12 µg/mL
same,MIC,Bacillus subtilis [13],0.2 µg/mL
Cc1cc(=O)oc2c(C(=O)/C=C/c3ccc(Cl)cc3)c(OCc3cnnn3Cc3ccccc3)ccc12,inhibition zone (IZ),Escherichia coli [2],23 mm
same,inhibition zone (IZ),Pseudomonas aeruginosa [3],8 mm
same,inhibition zone (IZ),Staphylococcus aureus [4],25 mm
same,inhibition zone (IZ),Bacillus subtilis [5],10 mm
